Measured values published in ChEMBL document CHEMBL5325403, “Benzenesulfonyl thiazoloimines as unique multitargeting antibacterial agents towards Enterococcus faecalis” (Eur J Med Chem, 2023).
In brackets after ≈: the same amount, converted by molar mass.

Assays:
Assay type in all cases: functional
Staphylococcus aureus [1] = assay: Antibacterial activity against Staphylococcus aureus assessed as inhibition of bacterial growth by continuous dilution method
Escherichia coli [2] = assay: Antibacterial activity against Escherichia coli ATCC 25922 assessed as inhibition of bacterial growth by continuous dilution method
Pseudomonas aeruginosa [3] = assay: Antibacterial activity against Pseudomonas aeruginosa assessed as inhibition of bacterial growth by continuous dilution method
Staphylococcus aureus [4] = assay: Antibacterial activity against Staphylococcus aureus ATCC 25923 assessed as inhibition of bacterial growth by continuous dilution method
Pseudomonas aeruginosa [5] = assay: Antibacterial activity against Pseudomonas aeruginosa ATCC 27853 assessed as inhibition of bacterial growth by continuous dilution method
Enterococcus faecalis = assay: Antibacterial activity against Enterococcus faecalis assessed as inhibition of bacterial growth by continuous dilution method
Acinetobacter baumannii = assay: Antibacterial activity against Acinetobacter baumannii assessed as inhibition of bacterial growth by continuous dilution method
Escherichia coli [6] = assay: Antibacterial activity against Escherichia coli assessed as inhibition of bacterial growth by continuous dilution method
Staphylococcus aureus [7] = assay: Antibacterial activity against Staphylococcus aureus ATCC 29213 assessed as inhibition of bacterial growth by continuous dilution method
Klebsiella pneumoniae = assay: Antibacterial activity against Klebsiella pneumoniae assessed as inhibition of bacterial growth by continuous dilution method
Staphylococcus aureus [8] = assay: Antibacterial activity against methicillin-resistant Staphylococcus aureus N315 assessed as inhibition of bacterial growth by continuous dilution method

Structure (SMILES)	MIC (Staphylococcus aureus [1]) [µg/mL]	MIC (Escherichia coli [2]) [µg/mL]	MIC (Pseudomonas aeruginosa [3]) [µg/mL]	MIC (Staphylococcus aureus [4]) [µg/mL]	MIC (Pseudomonas aeruginosa [5]) [µg/mL]	MIC (Enterococcus faecalis) [µg/mL]	MIC (Acinetobacter baumannii) [µg/mL]	MIC (Escherichia coli [6]) [µg/mL]	MIC (Staphylococcus aureus [7]) [µg/mL]	MIC (Klebsiella pneumoniae) [µg/mL]	MIC (Staphylococcus aureus [8]) [µg/mL]
Nc1ccc(S(=O)(=O)C/C(=N/OCc2ccc(Cl)cc2)c2nccs2)cc1	64 (≈ 152 µM)	8 (≈ 19 µM)	64 (≈ 152 µM)	64 (≈ 152 µM)	8 (≈ 19 µM)	8 (≈ 19 µM)	64 (≈ 152 µM)	16 (≈ 37.9 µM)	128 (≈ 303 µM)	16 (≈ 37.9 µM)	64 (≈ 152 µM)
CCCCCCO/N=C(/CS(=O)(=O)c1ccc(NC(C)=O)cc1)c1nccs1	64 (≈ 151 µM)	8 (≈ 18.9 µM)	32 (≈ 75.6 µM)	64 (≈ 151 µM)	32 (≈ 75.6 µM)	32 (≈ 75.6 µM)	128 (≈ 302 µM)	32 (≈ 75.6 µM)	128 (≈ 302 µM)	64 (≈ 151 µM)	32 (≈ 75.6 µM)
CC(=O)Nc1ccc(S(=O)(=O)C/C(=N/Nc2ccc([N+](=O)[O-])cc2[N+](=O)[O-])c2nccs2)cc1	2 (≈ 3.96 µM)	4 (≈ 7.93 µM)	64 (≈ 127 µM)	4 (≈ 7.93 µM)	32 (≈ 63.4 µM)	2 (≈ 3.96 µM)	4 (≈ 7.93 µM)	64 (≈ 127 µM)	32 (≈ 63.4 µM)	64 (≈ 127 µM)	8 (≈ 15.9 µM)
CCO/N=C(/CS(=O)(=O)c1ccc(NC(C)=O)cc1)c1nccs1	128 (≈ 348 µM)	16 (≈ 43.5 µM)	128 (≈ 348 µM)	128 (≈ 348 µM)	64 (≈ 174 µM)	32 (≈ 87.1 µM)	256 (≈ 697 µM)	32 (≈ 87.1 µM)	64 (≈ 174 µM)	64 (≈ 174 µM)	64 (≈ 174 µM)
Nc1ccc(S(=O)(=O)Nc2nccs2)cc1 [SULFATHIAZOLE]	128 (≈ 501 µM)	128 (≈ 501 µM)	128 (≈ 501 µM)	64 (≈ 251 µM)	512 (≈ 2010 µM)	128 (≈ 501 µM)	128 (≈ 501 µM)	256 (≈ 1000 µM)	128 (≈ 501 µM)	128 (≈ 501 µM)	64 (≈ 251 µM)
CC(=O)Nc1ccc(S(=O)(=O)/C(=C\c2ccc(C)cc2)C(=O)c2nccs2)cc1	256 (≈ 600 µM)	256 (≈ 600 µM)	128 (≈ 300 µM)	256 (≈ 600 µM)	128 (≈ 300 µM)	128 (≈ 300 µM)	256 (≈ 600 µM)	256 (≈ 600 µM)	256 (≈ 600 µM)	256 (≈ 600 µM)	128 (≈ 300 µM)
CC(=O)Nc1ccc(S(=O)(=O)/C(=C\c2ccc(C(F)(F)F)cc2)C(=O)c2nccs2)cc1	256 (≈ 533 µM)	256 (≈ 533 µM)	64 (≈ 133 µM)	128 (≈ 266 µM)	64 (≈ 133 µM)	128 (≈ 266 µM)	128 (≈ 266 µM)	256 (≈ 533 µM)	128 (≈ 266 µM)	256 (≈ 533 µM)	256 (≈ 533 µM)
CC(=O)Nc1ccc(S(=O)(=O)/C(=C\c2ccccc2Cl)C(=O)c2nccs2)cc1	32 (≈ 71.6 µM)	64 (≈ 143 µM)	256 (≈ 573 µM)	64 (≈ 143 µM)	32 (≈ 71.6 µM)	16 (≈ 35.8 µM)	128 (≈ 286 µM)	16 (≈ 35.8 µM)	128 (≈ 286 µM)	16 (≈ 35.8 µM)	256 (≈ 573 µM)
CC(=O)Nc1ccc(S(=O)(=O)/C(=C\c2ccc(C#N)cc2)C(=O)c2nccs2)cc1	8 (≈ 18.3 µM)	16 (≈ 36.6 µM)	128 (≈ 293 µM)	32 (≈ 73.1 µM)	64 (≈ 146 µM)	8 (≈ 18.3 µM)	128 (≈ 293 µM)	32 (≈ 73.1 µM)	8 (≈ 18.3 µM)	128 (≈ 293 µM)	8 (≈ 18.3 µM)
N#CCO/N=C(/CS(=O)(=O)c1ccc(N)cc1)c1nccs1	128 (≈ 381 µM)	8 (≈ 23.8 µM)	64 (≈ 190 µM)	64 (≈ 190 µM)	32 (≈ 95.1 µM)	64 (≈ 190 µM)	128 (≈ 381 µM)	16 (≈ 47.6 µM)	64 (≈ 190 µM)	64 (≈ 190 µM)	64 (≈ 190 µM)
CCCCO/N=C(/CS(=O)(=O)c1ccc(NC(C)=O)cc1)c1nccs1	64 (≈ 162 µM)	16 (≈ 40.5 µM)	64 (≈ 162 µM)	128 (≈ 324 µM)	64 (≈ 162 µM)	64 (≈ 162 µM)	128 (≈ 324 µM)	32 (≈ 80.9 µM)	64 (≈ 162 µM)	16 (≈ 40.5 µM)	64 (≈ 162 µM)
CC(=O)Nc1ccc(S(=O)(=O)C/C(=N/NC(=O)Cc2ccccc2)c2nccs2)cc1	256 (≈ 561 µM)	32 (≈ 70.1 µM)	256 (≈ 561 µM)	64 (≈ 140 µM)	16 (≈ 35 µM)	64 (≈ 140 µM)	256 (≈ 561 µM)	256 (≈ 561 µM)	256 (≈ 561 µM)	128 (≈ 280 µM)	64 (≈ 140 µM)
COc1ccc(/C=C(/C(=O)c2nccs2)S(=O)(=O)c2ccc(NC(C)=O)cc2)cc1	32 (≈ 72.3 µM)	64 (≈ 145 µM)	128 (≈ 289 µM)	32 (≈ 72.3 µM)	128 (≈ 289 µM)	4 (≈ 9.04 µM)	128 (≈ 289 µM)	32 (≈ 72.3 µM)	16 (≈ 36.2 µM)	32 (≈ 72.3 µM)	4 (≈ 9.04 µM)
CC(=O)Nc1ccc(S(=O)(=O)C/C(=N/Nc2ccc(Cl)cc2)c2nccs2)cc1	128 (≈ 285 µM)	128 (≈ 285 µM)	256 (≈ 570 µM)	256 (≈ 570 µM)	128 (≈ 285 µM)	64 (≈ 143 µM)	256 (≈ 570 µM)	128 (≈ 285 µM)	128 (≈ 285 µM)	256 (≈ 570 µM)	256 (≈ 570 µM)
